{
  "source": "patent US20080033053A1",
  "about": "“Cross-Reference To Related Applications” (priority 2004, published 2008)",
  "key": {"[1]": {"tested_on": "Chinese Hamster Ovary cells", "details": "cited from earlier work"}, "[2]": {"tested_on": "mouse bone marrow", "details": "in vivo mouse bone marrow micronucleus test; cited from earlier work"}, "[3]": {"details": "humans, cited from earlier work"}, "[4]": {"details": "by glomerular filtration and renal tubular secretion; cited from earlier work"}, "[5]": {"tested_on": "patients with Huntington's disease", "details": "eight patients with Huntington's disease, open-label; cited from earlier work"}, "[6]": {"tested_on": "human peripheral blood lymphocytes", "details": "in vitro; cited from earlier work"}, "[7]": {"details": "Ames Test; cited from earlier work"}, "[8]": {"tested_on": "retinas from rats", "experiment": "RNA expression profiling of retina, vehicle vs. (low dose & high dose) amantadine at steady state", "assay_type": "in vivo, Sprague Dawley rats"}, "[9]": {"tested_on": "rats", "details": "cited from earlier work"}},
  "data": [
    {"smiles": "Cl.NC12CC3CC(CC(C3)C1)C2", "note": "[amantadine, 1-amino adamantane HCl]", "values": [
      {"measurement": "mutagenicity", "setting": "[1]", "value": "non-mutagenic"},
      {"measurement": "chromosomal damage", "setting": "[2]", "value": "no evidence of chromosomal damage"},
      {"measurement": "half-life, range", "setting": "[3]", "value": "10 to 25", "unit": "h"},
      {"measurement": "half-life", "setting": "[3]; mean ± spread", "value": "17 ± 4", "unit": "h"},
      {"measurement": "excretion", "setting": "[4]", "value": "primarily excreted unchanged in the urine"},
      {"measurement": "dyskinesias", "setting": "[5]", "value": "significant reduction of dyskinesias"},
      {"measurement": "chromosomal damage", "setting": "[6]", "value": "no evidence of chromosomal damage"},
      {"measurement": "mutagenicity", "setting": "[7]", "value": "non-mutagenic"},
      {"measurement": "TRADD gene expression", "setting": "[8]; retinas following amantadine treatment, no fold change printed", "value": "down-regulated"},
      {"measurement": "up-regulation of several crystallins", "setting": "[8]; retinas of amantadine-treated rats", "value": "4-21 fold"},
      {"measurement": "teratogenic dose", "setting": "[9]", "value": 50, "unit": "mg/kg/day"}
    ]}
  ]
}
